Data: paper PMC8722130 (Progress in biophysics and molecular biology, 2021)

Legend:
[1] = biological target: uracil DNA-glycosylase (UDG) (Homo sapiens, UniProt P13051); assay: co-crystal structure; format: binding
[2] = biological target: human UDG (mitochondrial, 6xHis; XTAL Biostructures) (Homo sapiens, UniProt P13051-2 82-304); assay: thermal shift
human UDG (mitochondrial, 6xHis; XTAL Biostructures), sequence (P13051 91-313): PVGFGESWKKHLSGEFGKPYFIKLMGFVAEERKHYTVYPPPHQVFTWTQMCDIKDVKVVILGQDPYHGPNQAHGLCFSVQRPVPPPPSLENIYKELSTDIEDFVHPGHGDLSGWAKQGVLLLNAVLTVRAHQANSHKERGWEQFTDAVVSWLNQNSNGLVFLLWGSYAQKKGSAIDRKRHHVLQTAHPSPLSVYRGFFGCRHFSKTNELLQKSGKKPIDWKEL

uracil DNA-glycosylase (UDG), sequence (P13051 whole entry): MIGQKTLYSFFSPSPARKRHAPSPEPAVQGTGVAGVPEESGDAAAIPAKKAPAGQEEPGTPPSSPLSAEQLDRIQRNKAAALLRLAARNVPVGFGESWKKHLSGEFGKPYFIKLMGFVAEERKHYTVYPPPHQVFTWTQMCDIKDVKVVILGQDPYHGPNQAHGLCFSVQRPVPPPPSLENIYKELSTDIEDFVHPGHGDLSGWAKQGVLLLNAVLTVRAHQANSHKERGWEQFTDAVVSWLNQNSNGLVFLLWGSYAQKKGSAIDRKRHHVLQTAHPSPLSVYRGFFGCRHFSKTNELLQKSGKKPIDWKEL

Kd [1] [nM]	Molecule	binding result [2]
< 700	O=C(O)C1=CC(=C(c2ccc(O)c(C(=O)O)c2)c2ccc(O)c(C(=O)O)c2)C=CC1=O [aurintricarboxylic acid]	–
–	GCACUUAAGAAUUGCAAUUCUUAAGUGC (structured_DNA, U in place of T (deoxyuridine, nine U:A pairs stated)) [uracil DNA hairpin]	binds
